Test results reported in US20040192641A1, “Special preparation of anticancer drugs made by novel nanotechnology” (priority 2003, published 2004).
Marks after values point to notes of the source that are not given here.

Legend:
tumor S-180 = experiment: Survival time of tumor-bearing mice (CUR); conditions: mouse, in vivo
Description: The acceptable criterion for determining the anti-tumor efficacy of the free CUR and PK-CUR-NP are the determination of the life span prolongation.
The number of dead cells in the peritoneal fluid of mice treated with PK-CUR-NP increased life span when compared to free CUR.

tyrosine kinase (TK) = experiment: Tyrosine kinase (TK) activity of HL-60 leukemia cells; type: cell-based, human; conditions: 24 hours
Procedure: H-60 leukemia cells were plated at a density of 5×10^5 cells in […], and divided control and treatments groups for incubation 24 hours at 37° C. with 5% CO2. The cells were collected and washed twice with phosphate-buffered saline and re-suspended at density of 10^6 cells/ml in 5 mM HEPEs buffer (pH 7.4). The cells were then re-suspended in 1 ml of buffer containing 5 mM HEPES (pH 7.6), 1 mM MgCl2 and 1 mM EDTA, then placed on ice bath. The cell membrane was disrupted by ultra sound and centrifuged at 1000×g for 10 minutes. The supernatant was ultra centrifuged at 30,000×g for 30 minutes at 4° C. The pellet was re-suspended in 0.3 ml of buffer containing 25 mM HEOES, centrifuged at 12,000×g for 5 minutes. The resulting supernatant was used for TK assay. Content of protein was determined. 10 μg of protein placed in 20 mM HEPES (pH 7.6), 15 mM MgCl2, 10 mM ZnCl2 and 5% (v/v) Nonidet P-40. After 5 minutes incubation at 25° C., the reaction was initiated by the addition of 25 μM [γ^32P] ATP (3 ci/mmol). After 10 minutes, the reaction was stopped by the addition of 20 mM cold ATP. […] Radioactivity was determined by liquid scintillation spectrometry. The net TK activity was determined after correcting for endogenous TK activity.

sarcoma-180 solid tumors = experiment: Effect on sarcoma-180 solid tumors in mice (survival); type: in vivo; conditions: Example 54; percentage survival, 30 days observation after tumor cell inoculation
[1] = system: malignant melanocarcinoma B16; experiment: Inhibition of tumor cell proliferation, B16; type: cell-based, human; conditions: Mus musculus; 1 μg/ml, 72 hours
Procedure: Human tumor cell lines: Hela leukemia HL-60, malignant melanocarcinoma B16, oral epidermoid carcinoma (KB), lung carcinoma (A549), breast carcinoma MCF-7, adenocarcinoma of stomach.
Animal tumor cell lines: Walker carcinoma, LLC-WRC-256, malignant melanoma (RMMI 1846), 3T3, and S-180 sarcoma (CCRF-180). All lines were routinely cultured in the RPMI1640 medium supplemented 20% fetal calf serum. The experiment was carried out in 96 microplate, each well had 5×10^5 cells and given desired concentration of 1 μg/ml (1×10^−6 g/ml) drug. Then the plate was incubated at 37° C. in an atmosphere of humidified air enriched with 5 percent carbon dioxide for 72 hours.
Inhibition percent rate of tumor cell proliferation was obtained according to the bellow formula. [formula]

gastric cancer cells = experiment: Differentiation of gastric cancer cells; type: cell-based
Procedure: The gastric cancer cells and normal cells were cultured in PRMI 1640 medium supplement with 10% FCS serum. Other method is similar to example 1.

P388 leukemia cells = experiment: Anti-leukemia activity against P388 lymphocytic leukemia in mice (survival); type: in vivo; conditions: Example 54; i.p. once a day; dose 1, 10, 20 mg/kg/day, group not stated
Procedure: Animals: Adult DBA/2J male mice, 6 to 8 weeks old. All animals weighed approximately 25 g when used in experiments. Mice were assigned randomly to treatment and control groups. Each member of which received identical dosed (i.p.) of PK or 0.9% NaCl solution for all injections. Volumes were 0.01 ml/g body weight.
Tumor: L1210 or P388 leukemia cells induced in mice by inoculation with L1210 or P388 leukemia cells (1.0×10^5).
The leukemia cells were passed i.p. weekly. L1210 or P388 cells were cultured at 37° C. in RPMI-1640 medium (GIBCO) without antibiotics and supplemented with 10% fetal calf serum.
After the tumor implantation (1×10^5 leukemia cells), PK was injected intraperitoneally once a day. The treatment was started between the end of 2nd and 6th day after inoculation. Dose of PK was 25 mg/kg/day for PK groups. Control mice were treated with same value of 0-9% NaCl. Anti-leukemia activity was expressed as T/C %. T is median survival days of treated group and C is that of control group. A T/C value was greater that 100% means the treated mice is surviving longer than the control mice. […] The statistical significance of data was determined by student's test. […]
After the tumor implantation (1×10^5 leukemia cells), PK-HHT-SSL was injected intraperitoneally once a day. […] Anti-leukemia activity was expressed as T/C %. […] The statistical significance of data was determined by student's test.

SMILES | Increase in life span T/C (%) (tumor S-180) | MST (tumor S-180) [days] | % of control activity (TK) (tyrosine kinase (TK); Concentration 10^−6 M) [%] | % of control activity (TK) (tyrosine kinase (TK); Concentration 10^−7 M) [%] | Mean survival (%) (sarcoma-180 solid tumors) | inhibition at 1 µg/mL [1] [%] | NBT (%) (gastric cancer cells) | NSE (%) (gastric cancer cells) | Survival time (P388 leukemia cells) [days]
C=C1C[C@@]2(O)O[C@@]3(C[C@H]2C(C)C)[C@@H](C)CC[C@@H]13 [CUR, Curcumol] | 134.78 | 31 ± 1.9 | – | – | – | – | – | – | –
COC(=O)C[C@](O)(CCCC(C)(C)O)C(=O)O[C@@H]1C(OC)=C[C@]23CCCN2CCc2cc4c(cc2[C@H]13)OCO4 [HHT, Homoharringtonine] | – | – | 20.8 | 14.8 | 58.6 | 73.8 ± 8.1 | 58* % | 60* % | 19.8 ± 4.2
